Test results as given in patent publication US8048825B2, “Haloalkylsulfonanilide derivatives or salt thereof, herbicide comprising the derivatives as active ingredient, and use of the herbicide” (Nihon Nohyaku Co., Ltd., priority 2006, dated 2011).

What was measured:
Assay type in all cases: in vivo
[1] = test system: Lindernia procumbens; test: Herbicidal efficacy on paddy field weeds of pre-emergence stage (Pre), Test Example 1; settings: 1000 g/ha as active ingredient, examined after 21 days
Outline: (§1)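 Pre-emergence paddy test: 1000 g/ha active ingredient, formulated and water-diluted, dropped onto 5 cm floodwater one day after sowing both weeds in clay loam. After 21 days in greenhouse, inhibition relative to untreated control rated on 0 (0%) to 5 (100%) scale.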

[2] = test system: Scirpus juncoides; test: as above; settings: 1000 g/ha as active ingredient, examined after 21 days
Outline: as §1

[3] = test system: Lindernia procumbens; test: Herbicidal effect on paddy field weeds of post-emergence stage (Post), Test Example 2; settings: one-leaf stage, 1000 g/ha as active ingredient, examined after 21 days
Outline: (§2)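 Post-emergence paddy test: formulated compound added to 5 cm standing water at 1000 g/ha a.i. when weeds reached one-leaf stage in clay loam pots in greenhouse. Growth inhibition rated 21 days later versus untreated control on a 0 (0%) to 5 (100%) scale.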

[4] = test system: Scirpus juncoides; test: as above; settings: one-leaf stage, 1000 g/ha as active ingredient, examined after 21 days
Outline: as §2

[5] = test system: Echinochloa crus-galli; test: as above; settings: one-leaf stage, 1000 g/ha as active ingredient, examined after 21 days
Outline: as §2

Structure (SMILES) | Lindernia procumbens pre (herbicidal effect) [1] | Scirpus juncoides pre (herbicidal effect) [2] | Lindernia procumbens post (herbicidal effect) [3] | Scirpus juncoides post (herbicidal effect) [4] | Echinochloa crus-galli post (herbicidal effect) [5]
COC(=O)N(c1ccccc1CN1CCC(C)COC1=O)S(=O)(=O)C(F)(F)F (racemic) [2-24] | 4 (90%-99% herbicidal effect, phytotoxicity) | 4 (90%-99% herbicidal effect, phytotoxicity) | 4 (90%-99% herbicidal effect, phytotoxicity) | 4 (90%-99% herbicidal effect, phytotoxicity) | 4 (90%-99% herbicidal effect, phytotoxicity)
CCOC(=O)N(c1ccccc1CN1CCC(C)COC1=O)S(=O)(=O)C(F)(F)F (racemic) [2-25] | 4 (90%-99% herbicidal effect, phytotoxicity) | 4 (90%-99% herbicidal effect, phytotoxicity) | 4 (90%-99% herbicidal effect, phytotoxicity) | 4 (90%-99% herbicidal effect, phytotoxicity) | 4 (90%-99% herbicidal effect, phytotoxicity)
CCCCOC(=O)N(c1ccccc1CN1CCC(C)COC1=O)S(=O)(=O)C(F)(F)F (racemic) [2-27] | 4 (90%-99% herbicidal effect, phytotoxicity) | 4 (90%-99% herbicidal effect, phytotoxicity) | 4 (90%-99% herbicidal effect, phytotoxicity) | 4 (90%-99% herbicidal effect, phytotoxicity) | 4 (90%-99% herbicidal effect, phytotoxicity)
CC1CCN(Cc2ccccc2N(C(=O)OCC(Cl)(Cl)Cl)S(=O)(=O)C(F)(F)F)C(=O)OC1 (racemic) [2-34] | 4 (90%-99% herbicidal effect, phytotoxicity) | 4 (90%-99% herbicidal effect, phytotoxicity) | 4 (90%-99% herbicidal effect, phytotoxicity) | 4 (90%-99% herbicidal effect, phytotoxicity) | 4 (90%-99% herbicidal effect, phytotoxicity)
CCOC(=O)N(c1ccccc1CN1CCC(C)(c2ccccc2F)OC1=O)S(=O)(=O)C(F)(F)F (racemic) [Compound 1-430] | 5 (100% herbicidal effect, phytotoxicity) | 5 (100% herbicidal effect, phytotoxicity) | 5 (100% herbicidal effect, phytotoxicity) | 4 (90%-99% herbicidal effect, phytotoxicity) | 4 (90%-99% herbicidal effect, phytotoxicity)
COC(=O)N(c1ccccc1CN1CCC(C)(c2c(F)cccc2F)OC1=O)S(=O)(=O)C(F)(F)F (racemic) [Compound 1-440] | 5 (100% herbicidal effect, phytotoxicity) | 4 (90%-99% herbicidal effect, phytotoxicity) | 5 (100% herbicidal effect, phytotoxicity) | 4 (90%-99% herbicidal effect, phytotoxicity) | 4 (90%-99% herbicidal effect, phytotoxicity)
CCOC(=O)N(c1ccccc1CN1CCC(C)(c2c(F)cccc2F)OC1=O)S(=O)(=O)C(F)(F)F (racemic) [Compound 1-441] | 5 (100% herbicidal effect, phytotoxicity) | 5 (100% herbicidal effect, phytotoxicity) | 5 (100% herbicidal effect, phytotoxicity) | 4 (90%-99% herbicidal effect, phytotoxicity) | 5 (100% herbicidal effect, phytotoxicity)
CCC1(C(C)C)CCN(Cc2ccccc2NS(=O)(=O)C(F)(F)F)C(=O)O1 (racemic) [Compound 1-450] | 5 (100% herbicidal effect, phytotoxicity) | 5 (100% herbicidal effect, phytotoxicity) | 5 (100% herbicidal effect, phytotoxicity) | 4 (90%-99% herbicidal effect, phytotoxicity) | 4 (90%-99% herbicidal effect, phytotoxicity)
CCOC(=O)N(c1ccccc1CN1CCC(CC)(C(C)C)OC1=O)S(=O)(=O)C(F)(F)F (racemic) [Compound 1-452] | 5 (100% herbicidal effect, phytotoxicity) | 5 (100% herbicidal effect, phytotoxicity) | 5 (100% herbicidal effect, phytotoxicity) | 4 (90%-99% herbicidal effect, phytotoxicity) | 4 (90%-99% herbicidal effect, phytotoxicity)
CCC1(C(C)C)CCN(Cc2ccccc2N(C(=O)OCC(C)C)S(=O)(=O)C(F)(F)F)C(=O)O1 (racemic) [Compound 1-455] | 5 (100% herbicidal effect, phytotoxicity) | 5 (100% herbicidal effect, phytotoxicity) | 5 (100% herbicidal effect, phytotoxicity) | 4 (90%-99% herbicidal effect, phytotoxicity) | 5 (100% herbicidal effect, phytotoxicity)
CCOC(=O)N(c1ccccc1CN1CCC(C)(Cc2ccccc2F)OC1=O)S(=O)(=O)C(F)(F)F (racemic) [Compound 1-463] | 5 (100% herbicidal effect, phytotoxicity) | 5 (100% herbicidal effect, phytotoxicity) | 5 (100% herbicidal effect, phytotoxicity) | 4 (90%-99% herbicidal effect, phytotoxicity) | 4 (90%-99% herbicidal effect, phytotoxicity)
CCOCN(c1ccccc1CN1CCC(CC)(C(F)(F)F)OC1=O)S(=O)(=O)C(F)(F)F (stereo not shown) [Compound 1-100] | 5 (100% herbicidal effect, phytotoxicity) | 4 (90%-99% herbicidal effect, phytotoxicity) | 4 (90%-99% herbicidal effect, phytotoxicity) |  | 4 (90%-99% herbicidal effect, phytotoxicity)
CCOC(=O)N(c1ccccc1CN1CCC(c2ccccc2)OC1=O)S(=O)(=O)C(F)(F)F (stereo not shown) [Compound 1-241] | 5 (100% herbicidal effect, phytotoxicity) |  | 5 (100% herbicidal effect, phytotoxicity) | 4 (90%-99% herbicidal effect, phytotoxicity) | 4 (90%-99% herbicidal effect, phytotoxicity)
CCOCN(c1ccccc1CN1CCC(c2ccccc2C)OC1=O)S(=O)(=O)C(F)(F)F (stereo not shown) [Compound 1-292] | 5 (100% herbicidal effect, phytotoxicity) |  | 5 (100% herbicidal effect, phytotoxicity) | 4 (90%-99% herbicidal effect, phytotoxicity) | 4 (90%-99% herbicidal effect, phytotoxicity)
CCOCN(c1ccccc1CN1CCC(c2ccccc2C(F)(F)F)OC1=O)S(=O)(=O)C(F)(F)F (stereo not shown) [Compound 1-303] | 5 (100% herbicidal effect, phytotoxicity) |  | 5 (100% herbicidal effect, phytotoxicity) | 4 (90%-99% herbicidal effect, phytotoxicity) | 4 (90%-99% herbicidal effect, phytotoxicity)
CCOC(=O)N(c1ccccc1CN1CCC(C(F)(F)F)(C(F)(F)F)OC1=O)S(=O)(=O)C(F)(F)F [Compound 1-340] | 5 (100% herbicidal effect, phytotoxicity) | 4 (90%-99% herbicidal effect, phytotoxicity) |  | 4 (90%-99% herbicidal effect, phytotoxicity) | 4 (90%-99% herbicidal effect, phytotoxicity)
CCC1(C(F)(F)F)CCN(Cc2ccccc2N(C(=O)OCC(Cl)(Cl)Cl)S(=O)(=O)C(F)(F)F)C(=O)O1 (stereo not shown) [Compound 1-416] | 5 (100% herbicidal effect, phytotoxicity) | 5 (100% herbicidal effect, phytotoxicity) |  | 4 (90%-99% herbicidal effect, phytotoxicity) | 5 (100% herbicidal effect, phytotoxicity)
